Assay results: patent publication US5585492A, “LTA4 Hydrolase inhibitors” (priority 1994, dated 1996)
pIC50: −log10 of the molar value.

The compounds below were run on LTB4 production in human blood (assay: Inhibition of Calcium Ionophore-Induced LTB4 Production in Human Blood (HWB)). Settings: Homo sapiens, human whole blood, A23187 20 mcg/ml; read-out: Inhibition of Calcium Ionophore-Induced LTB4 Production in Human Blood IC50 HWB.
Format: cell-based
Description: One or more concentrations of the leukotriene A4 hydrolass inhibitor compounds being tested were prepared (diluted in DMSO) and 2 μl added and gently mixed with the diluted whole blood. After incubating for 15 minutes at 37° C. in a humidified incubator, calcium ionophore A23187 (Sigma Chemical Co., St. Louis, Mo.) was added to a final concentration of 20 mcg/ml and the incubation continued under the same conditions for an additional 10 minutes to allow LTB4 formation. The reaction was terminated by centrifugation (833 g, 10 minutes at 4° C.) and supernatant were analyzed for LTB4 and thromboxane by commercially available enzyme-linked immunoassays (Caymen Chemical Co., Ann Arbor, Mich.) according to the manufacturer's instructions. The IC50 of each test compound was determined from the amount of inhibition of LTB4 production as compared to an essentially identical assay in which no inhibitor compound was present.

SMILES | pIC50
CCOC(=O)CC1CCN(CCOc2ccc(Oc3ccccc3)cc2)CC1 [Example 300] | 5.60
c1ccc(Oc2ccc(OCCCn3cnc4cnccc43)cc2)cc1 [Example 351B] | 5.69
COc1ccc(COc2ccc(OCCN3CCCC3)cc2)cc1 [Example 213] | 5.33
c1ccc(Cc2ccc3c(c2)CC(CN2CCCC2)O3)cc1 (centres unmarked) [Example 280] | 7.68
CCOC(=O)CC1CCN(CCOc2ccc(Cc3ccccc3)cc2)CC1 [Example 301] | 6.08
C[C@@H]1C[C@H](C(N)=O)C[C@H](C)N1CCOc1ccc(Cc2ccccc2)cc1 [Example 316] | 6.88
C1=CC2CC1CN2CCOc1ccc(Cc2ccccc2)cc1 (centres unmarked) [Example 497] | 6.67
COC(=O)C1(O)CCN(CCOc2ccc(Cc3ccccc3)cc2)CC1 [Example 305] | 5.91
c1ccc(Oc2ccc(OCCn3cnc4cccnc43)cc2)cc1 [Example 348A] | 5.24
c1ccc(Cc2ccc(OCCCn3ccc4ncnc-4c3)cc2)cc1 [Example 356C] | 6.47
OC1CCN(CCOc2ccc(Cc3ccccc3)cc2)CC1 [Example 247] | 6.70
CC(=O)N[C@@H]1CCN(CCOc2ccc(Cc3ccccc3)cc2)[C@@H](C)C1 (relative stereo) [Example 467] | 6.65
NC(=O)C1CCN(CCOc2ccc(Cc3cccs3)cc2)CC1 [Example 229] | 6.66
COC(=O)C1CC2CC1CN(CCOc1ccc(Cc3ccccc3)cc1)C2 (centres unmarked) [Example 504] | 5.11
Fc1ccc(Oc2ccc(OCCn3cnc4cnccc43)cc2)cc1 [Example 355B] | 6.04
NC(=O)C1CCN(CC2CCc3cc(Cc4ccccc4)ccc3O2)CC1 (centres unmarked) [Example 293] | 5.49
NC(=O)C1CCN(CCOc2ccc(Cc3cccc(F)c3)cc2)CC1 [Example 233] | 6.31
CCOC(=O)C1CCN(CCOc2ccc(Cc3cccs3)cc2)CC1 [Example 310] | 5.87
CCOC(=O)C1C2CN(CCOc3ccc(Cc4ccccc4)cc3)CC21 (centres unmarked) [Example 325] | 5.62
C#CC(CC(=O)OCC)NCCCOc1ccc(Cc2ccccc2)cc1 (centres unmarked) [Example 407] | 6.15
Fc1ccc(Oc2ccc(OCCn3ccc4ncnc-4c3)cc2)cc1 [Example 355C] | 6.68
c1ccc(Oc2ccc(OCCCn3cnc4ccncc43)cc2)cc1 [Example 351A] | 5.57
CCC(CN1CCCC1)Oc1ccc(Cc2ccccc2)cc1 (centres unmarked) [Example 405] | 5.70

SMILES | pIC50
Fc1ccc(Oc2ccc(OCCN3CCCC3)cc2)cc1 [Example 48] | 6.41
c1ccc(Cc2ccc(OCCn3cnc4ccccc43)cc2)cc1 [Example 339] | 4.88
COC(=O)C1CN(CCCOc2ccc(Cc3ccccc3)cc2)CCC1=O (centres unmarked) [Example 262] | 5.61
Clc1cc(OCCN2CCCC2)ccc1Cc1ccccc1 [Example 114] | 4.80
NC(=O)C1CCN(CCOc2ccc(Cc3ccccc3)s2)CC1 [Example 369] | 5.82
Fc1cccc(COc2ccc(OCCN3CCCC3)cc2)c1 [Example 211] | 6.21
Fc1ccc(Oc2ccc(OCCn3cnc4ccncc43)cc2)cc1 [Example 355A] | 5.65
CC(CN(C)CCCOc1ccc(Cc2ccccc2)cc1)C(=O)O (centres unmarked) [Example 432] | 6.20
CNC(=O)C1CCN(CC2Cc3cc(Cc4ccccc4)ccc3O2)CC1 (centres unmarked) [Example 295] | 6.22
O=C(O)C1C2CN(CCOc3ccc(Cc4ccccc4)cc3)CC21 (centres unmarked) [Example 435] | 7.07
NC(=O)C1CCCN(CCOc2ccc(Oc3ccccc3)cc2)C1 (centres unmarked) [Example 253] | 6.31
Oc1ccc(Cc2ccc(OCCN3CCCC3)cc2)cc1 [Example 137] | 7.10
c1ccc(Oc2ccc3c(c2)CC(CN2CCCC2)O3)cc1 (centres unmarked) [Example 289] | 6.50
NC(=S)N1CCN(CCOc2ccc(Cc3ccccc3)cc2)CC1 [Example 458] | 5.86
NC(=O)C1CCN(CCOc2ccc(Cc3ccsc3)cc2)CC1 [Example 230] | 6.55
Fc1ccccc1Cc1ccc(OCCN2CCCC2)cc1 [Example 141] | 6.55
c1ccc2c(COc3ccc(OCCN4CCCC4)cc3)cccc2c1 [Example 214] | 5.00
c1ccc(COc2ccc(OCCn3cnc4cnccc43)cc2)cc1 [Example 347B] | 5.24
Clc1ccccc1COc1ccc(OCCN2CCCC2)cc1 [Example 208] | 5.67
c1ccc2nc(Cc3ccc(OCCN4CCCC4)cc3)ccc2c1 [Example 131] | 4.60
c1ccc(Oc2ccc(OCCn3cnc4cnccc43)cc2)cc1 [Example 349B] | 6.49
CC(CN1CCCCC1)Oc1ccc(Cc2ccccc2)cc1 (centres unmarked) [Example 403] | 5.42
Fc1ccc(Cc2ccc(OCCN3CCCC3)cc2)cc1 [Example 139] | 6.24

SMILES | pIC50
O=C(O)C1CCN(CCOc2ccc(Cc3cccc(F)c3)cc2)CC1 [Example 436] | 6.26
CC(C)(O)CCNCCCOc1ccc(Cc2ccccc2)cc1 [Example 416] | 5.71
O=C(O)C1CCN(CCOc2ccc(Cc3ccccc3)s2)CC1 [Example 371] | 6.19
NNC(=O)C1CCN(CCOc2ccc(Cc3ccccc3)cc2)CC1 [Example 419] | 6.92
c1cc(OCCN2CCCC2)ccc1Cc1ccc2c(c1)OCO2 [Example 130] | 6.00
c1ccc(Cc2ccc(OCCN3CCCC3)cc2)nc1 [Example 138] | 6.28
c1ccc(Oc2ccc(OCCn3cnc4ncccc43)cc2)cc1 [Example 348B] | 6.25
NCCOc1ccc(Cc2ccccc2)cc1 [Example 496] | 6.55
Cc1cc(Cc2ccccc2)ccc1OCCN1CCCC1 [Example 117] | 5.38
Cc1ccc(COc2ccc(OCCN3CCCC3)cc2)cc1 [Example 212] | 5.48
CC1CCC(C)N1CCOc1ccc(Cc2ccccc2)cc1 (centres unmarked) [Example 399] | 6.66
O=C(CCNCCOc1ccc(Cc2ccccc2)cc1)OCc1ccccc1 [Example 266] | 5.58
COc1ccc(Cc2ccc(OCCN3CCCC3)cc2)cc1F [Example 144] | 6.05
c1ccc(COc2ccc(OCCn3cnc4ccncc43)cc2)cc1 [Example 347A] | 5.15
N=C(N)C1CCN(CCOc2ccc(Cc3ccccc3)cc2)CC1 [Example 449] | 6.04
CCOC(=O)CCNCCCOc1ccc(Cc2ccccc2)cc1 [Example 265] | 6.35
Clc1cccc(Cc2ccc(OCCN3CCCC3)cc2)c1 [Example 143] | 6.54
C[C@H]1C[C@@H](O)CCN1CCOc1ccc(Cc2ccccc2)cc1 (relative stereo) [Example 465] | 6.33
CCOC(=O)CCNC(=O)C1CCN(CCOc2ccc(Cc3ccccc3)cc2)CC1 [Example 249] | 6.37
c1ccc(Cc2ccc(OCCCn3cnc4cnccc43)cc2)cc1 [Example 356B] | 6.12
O=C(O)C1CCN(CCOc2ccc(Cc3cccs3)cc2)CC1 [Example 437] | 6.16
c1ccc(COc2ccc(OCCn3cnc4ncccc43)cc2)cc1 [Example 346B] | 5.45
c1csc(COc2ccc(OCCN3CCCC3)cc2)c1 [Example 215] | 6.72

SMILES | pIC50
[O-][n+]1cccc2c1ncn2CCOc1ccc(Cc2ccccc2)cc1 [Example 363] | 7.24
c1ccc(Cc2ccc(OCCN3CC4CCC3C4)cc2)cc1 (centres unmarked) [Example 499] | 6.66
c1ccc(Oc2ccc(OCCn3cnc4ccncc43)cc2)cc1 [Example 349A] | 6.10
CC(=O)N[C@H]1C[C@@H](C)N(CCOc2ccc(Cc3ccccc3)cc2)[C@@H](C)C1 [Example 315] | 6.19
c1ccc(Oc2ccc(OCCCn3ccc4ncnc-4c3)cc2)cc1 [Example 351C] | 6.44
NC(=O)C1CCN(CCOc2ccc(Oc3ccccc3)cc2)CC1 [Example 252] | 6.90
NC(=O)C1CCCN(CCOc2ccc(Cc3ccccc3)cc2)C1 (centres unmarked) [Example 243] | 6.19
O=C(OCc1ccccc1)C1CCCN1CCCOc1ccc(Cc2ccccc2)cc1 (centres unmarked) [Example 258] | 5.84
NC(=O)CCNCCCOc1ccc(Cc2ccccc2)cc1 [Example 423] | 6.15
O=C(CCNCCCOc1ccc(Cc2ccccc2)cc1)N1CCOCC1 [Example 424] | 6.07
c1ccc(Cc2ccc(OCCCn3cnc4ccncc43)cc2)cc1 [Example 356A] | 5.89
CCOC(=O)CCNCCCCCOc1ccc(Cc2ccccc2)cc1 [Example 274] | 5.90
c1ccc2cc(COc3ccc(OCCN4CCCC4)cc3)ccc2c1 [Example 200] | 5.72
NC(=NO)C1CCN(CC2Cc3cc(Cc4ccccc4)ccc3O2)CC1 (centres unmarked) [Example 446] | 6.80
c1ccc(Cc2ccc(OCCCn3cnc4ncccc43)cc2)cc1 [Example 341B] | 6.03
O=C(CCl)NC1CCN(CCOc2ccc(Cc3ccccc3)cc2)C1 (centres unmarked) [Example 454] | 6.21
CC(CN1CCCCCC1)Oc1ccc(Cc2ccccc2)cc1 (centres unmarked) [Example 404] | 5.56
O=C(Nc1ccccc1)OC[C@@H]1CCCN1CCOc1ccc(Cc2ccccc2)cc1 [Example 428] | 5.18
c1ccc(Cc2ccc(OCCCN3CCCC3)cc2)cc1 [Example 259] | 6.36
O=C(CCNCCCCOc1ccc(Cc2ccccc2)cc1)OCc1ccccc1 [Example 273] | 6.81
c1ccc(Cc2ccc(OCCNC3CCCCC3)cc2)cc1 [Example 240] | 5.61
c1ccc(Cc2ccc3c(c2)CC(Cn2cnc4ccncc42)O3)cc1 (centres unmarked) [Example 358A] | 6.82

Same assay, conditions: human whole blood, A23187 20 mcg/ml; read-out: Inhibition of Calcium Ionophore-Induced LTB4 Production in Human Blood IC50 HWB

SMILES | pIC50
CC(=O)NC1CCN(CCOc2ccc(Cc3ccccc3)cc2)C1 (centres unmarked) [Example 256] | 6.38
